The subject of one data set is breast cancer graft. The data set is described as follows: breast cancer graft (xenograft) growth, control vs DES vs MF101. Format: in vivo. The text has this:
(§1) In a similar experiment, the effect of MF101 on breast cancer cells was compared to that of diethylstilbestrol (DES). […] FIGS. 3G and 3H show the effect of control, DES and MF101 on a breast cancer graft mass (FIG. 3G) and a uterine horn mass (FIG. 3H).

The next data set concerns uterine horn. Description: uterine horn mass, control vs DES vs MF101. Format: in vivo. The conditions noted are these: FIG. 3H.
Source text: as §1

The subject of data set [1] is U2OS-ERα cells. The data set is described as follows: Affymetrix U95Av2 gene expression microarray in U2OS-ERα cells. The format is cell-based, human. The conditions noted are these: for number of genes Activated, α / number of genes Repressed, α: 10 nM E2, 1 μM raloxifene or 1 μM tamoxifen. The protocol:
(§2) To identify genes regulated by ERα and/or ERβ, the U2OS-ERα and U2OS-ERβ cell lines were treated with doxycycline for 18 h in the absence or presence of 10 nM E2. Total RNA was used to prepare cRNA for hybridization with the human U95Av2 Affymetrix microarrays, which contain 12,600 known genes. Six sets of comparative expression data of untreated vs. each treated group were used to determine the genes regulated in ERα or ERβ cells.
(§3) Microarray data obtained from human Affymetrix U95Av2 gene chips from untreated vs. ligand-treated samples were analyzed using the Affymetrix Microarray Suite Version 5.0. Candidate genes displaying a statistically significant (p<0.05) increase or decrease signal changes relative to controls in at least three experiments were further selected by a ±0.8 signal log ratio mean cut-off. […] Fold-changes in the U2OS-ERα and U2OS-ERβ samples (in parentheses) were calculated relative to the untreated samples.

Data set [2] has as its system U2OS-ERα and U2OS-ERβ cell lines. Description: Affymetrix U95Av2 microarray, genes regulated across U2OS-ERα and U2OS-ERβ cell lines. The format is cell-based, human. The conditions noted are these: for number of genes Activated, α + β / number of genes Repressed, α + β: in both cell lines; for number of genes Activated, α + β / number of genes Repressed, α + β / total genes regulated in U2OSα and U2OSβ cell lines: 18 h; for total genes regulated in U2OSα and U2OSβ cell lines: p<0.05, 10 nM E2, 1 μM raloxifene or 1 μM tamoxifen. The protocol: as §2, §3

Data set [3] deals with U2OS-ERβ cells. The data set is described as follows: Affymetrix U95Av2 gene expression microarray in U2OS-ERβ cells. Format: cell-based, human. The protocol: as §2, §3
Data set [4] deals with U2OS-ERα cells. Particulars: relative to untreated, 18 h.
For a further data set, the target named is T1, human ERβ (Homo sapiens, UniProt Q92731).
T1 construct: expressed in transfected cells; host or cells: U2OS osteosarcoma cells, transient transfection
The data set is described as follows: ERE-tk-Luc reporter activation in U2OS osteosarcoma cells transfected with ERβ. The format is cell-based. Particulars: FIG. 1B.

The subject of data set [5] is U2OS-ERβ cells. Particulars: relative to untreated, 18 h.
Data set [6] deals with U2OS-ERα and U2OS-ERβ cell lines. Description: Affymetrix U95Av2 microarray, genes regulated across U2OS-ERα and U2OS-ERβ cell lines. Format: cell-based, human. The conditions noted are these: for number of common genes with opposite expression patterns in ERα cells compared to ERβ cells (*): α + β, 1 μM SERM, 18 h.
Setting [7] is: only in U2OS-ERα cells, percent of all regulated genes.

Marks after values point to notes of the source that are not given here.

T1 sequence (Q92731 whole entry): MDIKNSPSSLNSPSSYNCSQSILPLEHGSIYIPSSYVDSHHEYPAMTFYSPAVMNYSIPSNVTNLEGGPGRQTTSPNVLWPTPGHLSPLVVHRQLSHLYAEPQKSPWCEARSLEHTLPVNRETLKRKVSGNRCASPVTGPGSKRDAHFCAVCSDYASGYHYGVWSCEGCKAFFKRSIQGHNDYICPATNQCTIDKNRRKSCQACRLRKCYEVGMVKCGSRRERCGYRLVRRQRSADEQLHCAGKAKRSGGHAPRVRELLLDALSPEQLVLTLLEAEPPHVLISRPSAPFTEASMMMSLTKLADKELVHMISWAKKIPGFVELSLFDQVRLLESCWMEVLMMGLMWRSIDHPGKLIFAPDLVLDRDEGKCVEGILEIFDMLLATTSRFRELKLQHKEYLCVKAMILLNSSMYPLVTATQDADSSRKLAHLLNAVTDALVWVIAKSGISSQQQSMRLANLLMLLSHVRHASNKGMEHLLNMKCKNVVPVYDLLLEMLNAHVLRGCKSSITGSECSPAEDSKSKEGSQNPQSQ

`CC/C(=C(/CC)c1ccc(O)cc1)c1ccc(O)cc1` [DES, diethylstilbestrol]: the “growth of xenograft (breast cancer graft mass)” value in the data set on breast cancer graft (FIG. 3G) is “substantial increase in xenograft mass”. In the data set on breast cancer graft (FIGS. 3D-3F), the “proliferation of breast cancer cells” value is given as “proliferation-stimulating effect”. Further, in the data set on uterine horn, the “growth of uterine horn mass” value is “substantial increase in uterine horn growth”.
As to `C[C@]12CC[C@@H]3c4ccc(O)cc4CC[C@H]3[C@@H]1CC[C@@H]2O` [estradiol], the “genes regulated only in the U2OS-ERα cells” value with U2OS-ERα cells [1] (10 nM E2) turned out to be 65 genes. In the data set with U2OS-ERα cells [1] (only in U2OS-ERα cells, 18 h), the “number of genes Activated, α” value is 33 and the “number of genes Repressed, α” value was 32. Moreover, the “percentage of genes regulated by both ERα and ERβ” value in data set [2] (10 nM E2, 38 of the 228) is recorded as 17%. In data set [2] (10 nM E2, of the 228), the “genes regulated by both ERα and ERβ” value worked out at 38 genes. For the same molecule, in data set [2], the “number of genes Activated, α + β” value was found to be 34; the “number of genes Repressed, α + β” value was determined as 4; the “total genes regulated in U2OSα and U2OSβ cell lines” value (“total genes regulated” below) was “Estradiol: 228 genes regulated in U2OSα and U2OSβ cell lines”. In addition, the “total genes regulated” value in data set [2] (listed as E2) is 228 genes. For the same molecule, the “genes regulated only in the U2OS-ERβ cells” value with U2OS-ERβ cells [3] (10 nM E2) was determined as 125 genes. In the data set with U2OS-ERβ cells [3] (only in U2OS-ERβ cells, 18 h), the “number of genes Activated, β” value stood at 87 and the “number of genes Repressed, β” value stood at 38.
Consider `O=C(c1ccc(OCCN2CCCCC2)cc1)c1c(-c2ccc(O)cc2)sc2cc(O)ccc12` [raloxifene], for which, in the data set on U2OS-ERα cells [4], the “Fold-change by real-time PCR, NKG2C (α)” value was determined as 7.54 fold. The “Mean signal log ratio ± S.E., NKG2C (α)” value with U2OS-ERα cells [1] (U2OS-ERα, 18 h) was determined as 2.40 ± 0.82. Moreover, in the data set on U2OS-ERα cells [1] (only in U2OS-ERα cells, 18 h), the “number of genes Activated, α” value turned out to be 10 and the “number of genes Repressed, α” value is listed as 10. In the data set on U2OS-ERα cells [1] (setting [7]), the “relative percentage of genes Activated, α” value is given as “(5.3%)” and the “relative percentage of genes Repressed, α” value is reported as “(5.3%)”. Also, the “blockade of the activation of ERE-tk-Luc by MF101” value on human ERβ was “blocked”. For the same molecule, in the data set on U2OS-ERβ cells [5], the “Fold-change by real-time PCR, NKG2C (β)” value stood at 0.36 fold. The “number of common genes with opposite expression patterns in ERα cells compared to ERβ cells (*)” value in [6] is reported as 17*. In data set [2], the “total genes regulated” value was “Raloxifene: 190 genes regulated in U2OSα and U2OSβ cell lines”. Further, the “relative percentage of common genes with opposite expression patterns (*)” value in data set [2] (α + β) is “(8.9%)”. The “Mean signal log ratio ± S.E., NKG2C (β)” value in the data set on U2OS-ERβ cells [3] (U2OS-ERβ, 18 h) was −5.20 ± 0.08. In addition, in the data set on U2OS-ERβ cells [3] (only in U2OS-ERβ cells), the “relative percentage of genes Activated, β” value is “(27.4%)” and the “relative percentage of genes Repressed, β” value is listed as “(53.2%)”. Besides, in the data set on U2OS-ERβ cells [3] (only in U2OS-ERβ cells, 18 h), the “number of genes Activated, β” value was determined as 52 and the “number of genes Repressed, β” value was found to be 101.
For the molecule `CC/C(=C(\c1ccccc1)c1ccc(OCCN(C)C)cc1)c1ccccc1` [tamoxifen], in the data set on U2OS-ERα cells [1] (only in U2OS-ERα cells, 18 h), the “number of genes Activated, α” value came to 21 and the “number of genes Repressed, α” value stood at 38. Also, in data set [6], the “percentage of genes regulated by tamoxifen that were also regulated by raloxifene” value came out at 27% and the “number of common genes with opposite expression patterns in ERα cells compared to ERβ cells (*)” value was 12*. Moreover, in data set [2], the “number of genes Activated, α + β” value turned out to be 1; the “number of genes Repressed, α + β” value came to 9; the “total genes regulated” value is “Tamoxifen: 236 genes regulated in U2OSα and U2OSβ cell lines”. Moreover, in the data set on U2OS-ERβ cells [3] (only in U2OS-ERβ cells, 18 h), the “number of genes Activated, β” value was 26 and the “number of genes Repressed, β” value amounted to 129.

For the origin of these results see patent US8110228B2, “Composition for treatment of menopause” (Bionovo, Inc., priority 2005, dated 2012).
